Measured values taken from BindingDB's records for patent US10695334 (Boehringer Ingelheim International, 2020).

The molecules below were run against Kallikrein-1 (Homo sapiens, UniProt P06870) (assay: Inhibition Assay).
Experimental: Prior to the assay, human TK1 (R&D Systems) was activated by incubation with human trypsin (Calbiochem) in a 1:10,000 ratio for 15 min at 37° C. For assaying TK1 inhibitory activity, activated TK1 (31.25 nM or 1 U/mL) was incubated at 24° C. with 0.1 mM fluorogenic substrate H-Pro-Phe-Arg-AMC (11295 from Bachem) and various concentrations of the test compound in assay buffer. Measurements were performed in a kinetic interval every 2nd minute for 16 min using a Spectramax M5 (Molecular Devices) with the following settings of the wavelength excitation of 350 nm and wavelength emission of 450 nm.

Kallikrein-1, sequence (P06870 whole entry): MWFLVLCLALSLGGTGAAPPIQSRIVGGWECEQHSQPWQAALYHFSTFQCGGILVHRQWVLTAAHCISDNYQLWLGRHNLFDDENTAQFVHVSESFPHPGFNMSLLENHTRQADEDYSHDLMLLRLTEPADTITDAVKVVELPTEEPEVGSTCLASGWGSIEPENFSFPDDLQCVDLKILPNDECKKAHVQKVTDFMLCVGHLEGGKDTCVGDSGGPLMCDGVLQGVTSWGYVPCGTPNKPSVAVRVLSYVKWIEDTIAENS

IC50, > 10 µM:
Cc1nc(N2CC3(CC3)C2)ccc1Cn1cc(C(=O)N[C@@H]2CCc3c(C)n[nH]c32)cn1 [US10695334, Example 11]
Cc1nc(N2CC3C(C2)C3(F)F)ncc1Cn1cc(C(=O)N[C@@H]2CCc3c2n[nH]c3C)cn1 (stereo partly drawn) [US10695334, Example 84]
Cc1nc(N2CC3C(C2)C3(F)F)ccc1Cn1cc(C(=O)N[C@@H]2CCc3c(C)n[nH]c32)c(C)n1 (stereo partly drawn) [US10695334, Example 18]
